24 molecules from patent US10351576B2, “Fused tricyclic pyrazole derivatives useful for farnesoid X receptors” (NOVARTIS AG, priority 2015, dated 2019) can be followed below.

The structures appear in SMILES notation.

This assay deals with T1, human Farnesoid X Receptor (FXR) ligand binding domain (GST-FXR LBD) (Homo sapiens, UniProt Q96RI1).
T1 construct: purchased Invitrogen
T1 sequence (Q96RI1 193-472 isoform Q96RI1-2): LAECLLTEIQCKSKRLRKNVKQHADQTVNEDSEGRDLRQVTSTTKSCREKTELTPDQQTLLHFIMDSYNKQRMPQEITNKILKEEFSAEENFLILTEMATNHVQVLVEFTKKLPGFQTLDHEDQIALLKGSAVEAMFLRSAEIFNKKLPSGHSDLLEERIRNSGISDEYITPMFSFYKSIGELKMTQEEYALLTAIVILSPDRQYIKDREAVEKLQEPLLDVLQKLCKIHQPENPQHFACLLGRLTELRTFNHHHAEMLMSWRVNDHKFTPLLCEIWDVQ
Nature of the assay: Human GST-FXR LBD co-activator interaction assay (FXR HTRF assay). Particulars: ligand-dependent interaction of GST-FXR LBD with biotin-labeled SRC-1 peptide, response relative to GW4064, read-out: FXR coactivator interaction assay (HTRF). It is filed as biochemical. The source says: Human GST-FXR LBD Co-Activator Interaction Assay
The FXR HTRF assay is a biochemical assay measuring the interaction between FXR and a coactivator protein (SRC1). The ligand-induced interaction with a coactivator protein is a critical step in transcriptional activation by FXR. Thus, this is an assay designed to measure FXR agonist activity of the test compounds.
Recombinant human Farnesoid X Receptor (FXR) ligand binding domain (amino acids 193-472) fused to glutathione S-transferase (GST) purified protein (GST-FXR LBD) was purchased (Invitrogen). The ligand-dependent interaction between GST-FXR LBD and a peptide derived from Steroid Receptor Coactivator-1 (SRC-1) was monitored by Fluorescence Resonance Energy Transfer (FRET). […] Test compounds (in DMSO solution) and detection reagents (anti-GST-Cryptate labeled antibody and Streptavidin-XL665 conjugate; CisBio) were added in assay buffer containing 50 mM KF. Plates are incubated at room temperature in the dark for 2.5 hrs before reading on an Envision (PerkinElmer) at 665 nm and 590 nm. The HTRF assay results were calculated from the 665 nm/590 nm ratio (ratio=(A665 nm/A590 nm)×10^4) and expressed in Delta F %=(Ratiosample−Rationegative)/Rationegative×100.
A negative control (without Streptavidin-XL665) was run with each assay and represented the background fluorescence. A reference FXR agonist, (E)-3-(2-chloro-4-((3-(2,6-dichlorophenyl)-5-isopropylisoxazol-4-yl)methoxy)styryl)benzoic acid (Compound GW4064), was included in each experiment as positive control. The efficacy of each test compound was compared to that of GW4064. At each concentration, the relative activity of the test compound was expressed as Response %=(Rsample−RDMSO)/(Rpositive−RDMSO), where Rsample is the HTRF response (expressed in Delta F %) for the test compound, Rpositive is the maximal response for GW4064 at saturating concentrations, and RDMSO is the response for DMSO control. The EC50 values were calculated using GraphPad Prism (GraphPad Software) using non-linear regression curve fit (log(agonist) vs. response—variable slope (four parameters)).
For orientation: Time-resolved FRET reads energy transfer from a long-lived donor to a nearby acceptor.
Take `Cn1nc(C(=O)N(CC(=O)NC(C)(C)C)Cc2cccc(F)c2)c2c1-c1cc(Cl)ccc1OC2` [Compound 14, N-tert-butyl-2-(1-{8-chloro-1-methyl-1H,4H-chromeno[4,3-c]pyrazol-3-yl}-N-[(3-fluorophenyl)methyl]formamido)acetamide]: the EC50 worked out at 58 nM.

Consider `Cn1nc(C(=O)N(CC(=O)NCC2CC2)Cc2cccc(F)c2F)c2c1-c1cc(Cl)ccc1OC2` [Compound 6, 2-(1-{8-chloro-1-methyl-1H,4H-chromeno[4,3-c]pyrazol-3-yl}-N-[(2,3-difluorophenyl)methyl]formamido)-N-(cyclopropylmethyl) acetamide], for which the EC50 is 12 nM.

As for `CC(C)NC(=O)CN(Cc1c(F)cccc1F)C(=O)c1nn(C)c2c1COc1ccc(Cl)cc1-2` [Compound 35, 2-(1-{8-chloro-1-methyl-1H,4H-chromeno[4,3-c]pyrazol-3-yl}-N-[(2,6-difluorophenyl)methyl]formamido)-N-(propan-2-yl)acetamide], the EC50 was determined as 366 nM.

With `CC(C)NC(=O)CN(Cc1cc(F)ccc1F)C(=O)c1nn(C)c2c1COc1ccc(Br)cc1-2` [Compound 16, 2-(1-{8-bromo-1-methyl-1H,4H-chromeno[4,3-c]pyrazol-3-yl}-N-[(2,5-difluorophenyl)methyl]formamido)-N-(propan-2-yl)acetamide], the EC50 came to 49 nM.

For the molecule `Cn1nc(C(=O)N(CC(=O)NCC2CC2)Cc2cccc(F)c2)c2c1-c1cc(Cl)ccc1OC2` [Compound 1, 8-chloro-N-(2-((cyclopropylmethyl)amino)-2-oxoethyl)-N-(3-fluorobenzyl)-1-methyl-1,4-dihydrochromeno[4,3-c]pyrazole-3-carboxamide], the EC50 turned out to be 2 nM.

For `Cn1nc(C(=O)N(CC(=O)NC(C)(C)c2ccccc2)Cc2ccccc2F)c2c1-c1cc(Cl)ccc1OC2` [Compound 43, 2-(1-{8-chloro-1-methyl-1H,4H-chromeno[4,3-c]pyrazol-3-yl}-N-[(2-fluorophenyl)methyl]formamido)-N-(2-phenylpropan-2-yl)acetamide], the EC50 was determined as 1700 nM.

With `Cn1nc(C(=O)N(CC(=O)NC2CCC2)Cc2cccc(F)c2)c2c1-c1cc(Cl)ccc1OC2` [Compound 12, 2-(1-{8-chloro-1-methyl-1H,4H-chromeno[4,3-c]pyrazol-3-yl}-N-[(3-fluorophenyl)methyl]formamido)-N-cyclobutylacetamide], the EC50 is 14 nM.

Take `Cn1nc(C(=O)N(CCNc2nccs2)Cc2cccc(F)c2)c2c1-c1cc(Cl)ccc1OC2` [Compound 76, 8-chloro-N-[(3-fluorophenyl)methyl]-1-methyl-N-{2-[(1,3-thiazol-2-yl)amino]ethyl}-1H,4H-chromeno[4,3-c]pyrazole-3-carboxamide]: the EC50 was 259 nM.

For `Cn1nc(C(=O)N(CC(=O)NC(C)(C)C)Cc2ccccc2F)c2c1-c1cc(Cl)ccc1OC2` [Compound 30, N-tert-butyl-2-(1-{8-chloro-1-methyl-1H,4H-chromeno[4,3-c]pyrazol-3-yl}-N-[(2-fluorophenyl)methyl]formamido)acetamide], the EC50 was found to be 190 nM.

For `Cn1nc(C(=O)N(CC(=O)NCC2CCOCC2)Cc2ccccc2F)c2c1-c1cc(Cl)ccc1OC2` [Compound 82, 2-(1-{8-chloro-1-methyl-1H,4H-chromeno[4,3-c]pyrazol-3-yl}-N-[(2-fluorophenyl)methyl]formamido)-N-(oxan-4-ylmethyl)acetamide], the EC50 was found to be 178 nM.

Take `Cn1nc(C(=O)N(Cc2ccccc2)Cc2ccc(S(C)(=O)=O)cc2)c2c1-c1cc(Cl)ccc1OC2` [Compound 56, N-benzyl-8-chloro-N-[(4-methanesulfonylphenyl)methyl]-1-methyl-1H,4H-chromeno[4,3-c]pyrazole-3-carboxamide]: the EC50 was found to be 605 nM.

As for `Cn1nc(C(=O)N(CC(=O)NCCF)Cc2cccc(F)c2)c2c1-c1cc(Cl)ccc1OC2` [Compound 9, 2-(1-{8-chloro-1-methyl-1H,4H-chromeno[4,3-c]pyrazol-3-yl}-N-[(3-fluorophenyl)methyl]formamido)-N-(2-fluoroethyl)acetamide], the EC50 is 3 nM.

For `CC(C)NC(=O)CN(Cc1cccc(F)c1)C(=O)c1nn(C)c2c1COc1ccc(Cl)cc1-2` [Compound 15, 2-(1-{8-chloro-1-methyl-1H,4H-chromeno[4,3-c]pyrazol-3-yl}-N-[(3-fluorophenyl)methyl]formamido)-N-(propan-2-yl)acetamide], the EC50 was found to be 27 nM.

On to `Cn1nc(C(=O)N(CC(=O)NC[C@@H]2CCCO2)Cc2ccccc2F)c2c1-c1cc(Cl)ccc1OC2` [Compound 21, 2-(1-{8-chloro-1-methyl-1H,4H-chromeno[4,3-c]pyrazol-3-yl}-N-[(2-fluorophenyl)methyl]formamido)-N-[(2S)-oxolan-2-ylmethyl]acetamide], for which the EC50 worked out at 160 nM.

For `Cn1nc(C(=O)N(CC(=O)NC2CC2(F)F)Cc2ccccc2F)c2c1-c1cc(Cl)ccc1OC2` (stereo not drawn) [Compound 23, 2-(1-{8-chloro-1-methyl-1H,4H-chromeno[4,3-c]pyrazol-3-yl}-N-[(2-fluorophenyl)methyl]formamido)-N-(2,2-difluorocyclopropyl)acetamide], the EC50 was 87 nM.

Turning to `Cn1nc(C(=O)N(CC(=O)NC2CCCC2)Cc2ccccc2F)c2c1-c1cc(Cl)ccc1OC2` [Compound 18, 2-(1-{8-chloro-1-methyl-1H,4H-chromeno[4,3-c]pyrazol-3-yl}-N-[(2-fluorophenyl)methyl]formamido)-N-cyclopentylacetamide], the EC50 worked out at 64 nM.

Regarding `Cn1nc(C(=O)N(CC(=O)NC2CC2)Cc2ccccc2F)c2c1-c1cc(Cl)ccc1OC2` [Compound 8, 2-(1-{8-chloro-1-methyl-1H,4H-chromeno[4,3-c]pyrazol-3-yl}-N-[(2-fluorophenyl)methyl]formamido)-N-cyclopropylacetamide], the EC50 was 31 nM.

As for `Cn1nc(C(=O)N(CC(=O)NCC2CC2)Cc2ccccc2F)c2c1-c1cc(F)ccc1OC2` [Compound 65, N-(2-((cyclopropylmethyl)amino)-2-oxoethyl)-8-fluoro-N-(2-fluorobenzyl)-1-methyl-1,4-dihydrochromeno[4,3-c]pyrazole-3-carboxamide], the EC50 stood at 12 nM.

In the case of `Cn1nc(C(=O)N(CC(=O)NCC2CC2)Cc2ccccc2F)c2c1-c1cc(Br)ccc1OC2(C)C` [Compound 78, 2-(1-{8-bromo-1,4,4-trimethyl-1H,4H-chromeno[4,3-c]pyrazol-3-yl}-N-[(2-fluorophenyl)methyl]formamido)-N-(cyclopropylmethyl)acetamide], the EC50 came out at 2230 nM.

As for `Cn1nc(C(=O)N(Cc2ccccc2)Cc2ccc(C(N)=O)cc2)c2c1-c1cc(Cl)ccc1OC2` [Compound 53, N-benzyl-N-(4-carbamoylbenzyl)-8-chloro-1-methyl-1,4-dihydrochromeno[4,3-c]pyrazole-3-carboxamide], the EC50 was determined as 442 nM.

In the case of `Cn1nccc1NC(=O)CN(Cc1ccccc1F)C(=O)c1nn(C)c2c1COc1ccc(Cl)cc1-2` [Compound 41, 2-(1-{8-chloro-1-methyl-1H,4H-chromeno[4,3-c]pyrazol-3-yl}-N-[(2-fluorophenyl)methyl]formamido)-N-(1-methyl-1H-pyrazol-5-yl)acetamide], the EC50 was 1610 nM.

`CC(C)NC(=O)CN(Cc1cc(F)ccc1F)C(=O)c1nn(C)c2c1COc1ccc(Cl)cc1-2` [Compound 26, 2-(1-{8-chloro-1-methyl-1H,4H-chromeno[4,3-c]pyrazol-3-yl}-N-[(2,5-difluorophenyl)methyl]formamido)-N-(propan-2-yl)acetamide]: the EC50 is 84 nM.

Consider `Cn1nc(C(=O)N(CC(=O)NCC2CCOC2)Cc2ccccc2F)c2c1-c1cc(Cl)ccc1OC2` (stereo not drawn) [Compound 7, 2-(1-{8-chloro-1-methyl-1H,4H-chromeno[4,3-c]pyrazol-3-yl}-N-[(2-fluorophenyl)methyl]formamido)-N-(oxolan-3-ylmethyl) acetamide], for which the EC50 worked out at 18 nM.

Turning to `CC(C)NC(=O)CN(Cc1ccccc1)C(=O)c1nn(C)c2c1COc1ccc(Br)cc1-2` [Compound 25, 2-(N-benzyl-1-{8-bromo-1-methyl-1H,4H-chromeno[4,3-c]pyrazol-3-yl}formamido)-N (propan-2-yl)acetamide], the EC50 was determined as 32 nM.
